In general, Ki refers to a dissociation constant, usually derived from enzyme kinetics or from competition with a known ligand. The melting point is the temperature of the solid-liquid transition.

The values that follow come from patent publication US20010034357A1, “Substituted pyridine compounds useful for controlling chemical synaptic transmission” (priority 2000, published 2001).

The target of data set [1] is T1, neuronal nicotinic acetylcholine receptors (Rattus norvegicus, UniProt P09483+P12390).
T1 construct: crude synaptic membrane preparations from whole rat brain; from tissue; host or cells: whole rat brain, crude synaptic membranes
T1 sequence (P09483 31-630): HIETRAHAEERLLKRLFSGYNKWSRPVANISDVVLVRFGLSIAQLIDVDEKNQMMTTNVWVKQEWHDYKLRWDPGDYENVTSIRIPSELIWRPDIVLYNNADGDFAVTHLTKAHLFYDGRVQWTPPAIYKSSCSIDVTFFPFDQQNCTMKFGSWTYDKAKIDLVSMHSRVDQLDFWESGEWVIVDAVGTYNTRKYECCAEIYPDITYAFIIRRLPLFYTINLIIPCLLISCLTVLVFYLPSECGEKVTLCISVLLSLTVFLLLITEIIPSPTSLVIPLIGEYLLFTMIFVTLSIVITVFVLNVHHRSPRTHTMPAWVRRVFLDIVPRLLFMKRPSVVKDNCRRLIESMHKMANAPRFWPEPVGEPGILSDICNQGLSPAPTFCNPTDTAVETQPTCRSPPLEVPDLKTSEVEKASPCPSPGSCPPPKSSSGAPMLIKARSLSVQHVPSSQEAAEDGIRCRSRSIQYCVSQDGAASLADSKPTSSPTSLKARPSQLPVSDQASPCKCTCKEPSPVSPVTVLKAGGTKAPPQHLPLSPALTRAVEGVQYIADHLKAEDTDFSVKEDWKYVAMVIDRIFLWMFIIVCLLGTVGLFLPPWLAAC
T1 sequence (P12390 25-500): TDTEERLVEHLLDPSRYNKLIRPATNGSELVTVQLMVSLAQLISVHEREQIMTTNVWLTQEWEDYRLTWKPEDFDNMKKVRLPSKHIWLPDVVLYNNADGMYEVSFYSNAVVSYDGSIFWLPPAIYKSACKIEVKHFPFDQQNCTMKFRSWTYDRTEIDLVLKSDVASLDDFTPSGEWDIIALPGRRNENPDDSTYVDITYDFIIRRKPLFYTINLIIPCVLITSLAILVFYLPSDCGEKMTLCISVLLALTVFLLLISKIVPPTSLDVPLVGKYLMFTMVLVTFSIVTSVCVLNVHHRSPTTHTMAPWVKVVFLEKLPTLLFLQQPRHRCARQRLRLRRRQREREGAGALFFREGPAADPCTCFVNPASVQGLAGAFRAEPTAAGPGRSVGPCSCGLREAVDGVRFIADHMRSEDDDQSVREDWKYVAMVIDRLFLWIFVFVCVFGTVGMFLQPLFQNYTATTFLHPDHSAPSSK
The data set is described as follows: [3H]-cytisine binding to neuronal nicotinic acetylcholine receptors, crude synaptic membranes from whole rat brain. Particulars: [3H]-CYT 1.25 nM, whole rat brain membranes, 60 minutes at 4° C.; Cheng and Prusoff correction; Table 1; read-out: Ki. On the procedure:
The in vitro protocols for determination of nicotinic acetylcholine channel receptor binding potencies of ligands was determined as follows.
Binding of [^3H]-cytisine ([^3H]-CYT) to neuronal nicotinic acetylcholine receptors was accomplished using crude synaptic membrane preparations from whole rat brain (Pabreza et al., Molecular Pharmacol., 1990, 39:9). Washed membranes were stored at −80° C. prior to use. Frozen aliquots were slowly thawed and resuspended in 20 volumes of buffer (containing: 120 mM NaCl, 5 mM KCl, 2 mM MgCl2, 2 mM CaCl2 and 50 mM Tris-Cl, pH 7.4 @4° C.). After centrifuging at 20,000×g for 15 minutes, the pellets were resuspended in 30 volumes of buffer.
The test compounds were dissolved in water to make 10 mM stock solutions. Each solution was then diluted (1:100) with buffer (as above) and further taken through seven serial log dilutions to produce test solutions from 10^−5 to 10^−11 M.
Homogenate (containing 125-150 µg protein) was added to triplicate tubes containing the range of concentrations of test compound described above and [^3H]-CYT (1.25 nM) in a final volume of 500 μL. Samples were incubated for 60 minutes at 4° C., then rapidly filtered through Whatman GF/B filters presoaked in 0.5% polyethyleneimine using 3×4 mL of ice-cold buffer. The filters are counted in 4 mL of Ecolume® (ICN). Nonspecific binding was determined in the presence of 10 μM (−)-nicotine and values were expressed as a percentage of total binding. IC50 values were determined with a four-parameter non-linear regression and IC50 values were converted to K1 values using the Cheng and Prusoff correction (K1=IC50/(1+[ligand]/Kd of ligand).
Each Example number corresponds to the synthetic Examples described above. […] The lower the Ki value, the more affinity for neuronal nicotinic acetylcholine receptors.

Another data set deals with mouse hot plate paradigm. The data set can be described thus: mouse hot plate paradigm (analgesia, latency until tenth jump). In kind it is in vivo. The following applies: mice, intraperitoneal, dosed 30 minutes prior to testing, hot plate 55° C.; footnote symbols for no effect. As to the method:
An in vivo protocol was utilized to determine the effectiveness of nicotinic acetylcholine receptor ligands as analgesic agents in the mouse hot plate paradigm.
Separate groups of mice, (n=8/group) were utilized for each dose group. All drugs were administered by the intraperitoneal route of administration. Test drugs were dissolved in water to make a 6.2 mM stock solution. Animals were dosed with this solution (10 mL/kg body weight) for a 62 micromol/kg dose. Lower doses were administered similarly, following serial dilution of the stock solution in half-log increments. Animals were dosed 30 minutes prior to testing in the hot plate. The hot-plate utilized was an automated analgesia monitor (Model #AHP16AN, Omnitech Electronics, Inc. of Columbus, Ohio). The temperature of the hot plate was maintained at 55° C. and a cut-off time of 180 seconds was utilized. A control was run against each compound tested. Latency until the tenth jump was recorded as the dependent measure. An increase in the tenth jump latency relative to the control was considered a significant effect.

The molecule `CC(COc1cnc(Cl)c(C=Cc2ccncc2)c1)N(C)C` (single isomer, unassigned) [Example 39] returned a melting point of 81 to 83 °C. In addition, the Ki in data set [1] came out at 0.103 nM. The “Analgesic MED (μmol/kg)” value in the data set with mouse hot plate paradigm is “* (no effect at 62)”.

Molecule `CN(C)[C@H](COc1cnc(Cl)c(C=Cc2ccncc2)c1)Cc1ccccc1` [Example 24, 5-[(S)-2-N-dimethyl-amino-3-phenyl-1-propyloxy]-2-chloro-3-(4-vinylpyridinyl) pyridine di-p-toluenesulfonic acid] gave a melting point of 81 to 83 °C. Also, the Ki in data set [1] is 4.63 nM. For the same molecule, the “Analgesic MED (μmol/kg)” value in the data set with mouse hot plate paradigm was “* (no effect at 62)”.

In the case of `CC[C@@H](COc1cnc(Cl)c(C=Cc2ccncc2)c1)N(C)C` [Example 20, 5-[(S)-2-N-dimethylamino-1-butyloxy]-2-chloro-3-(4-vinylpyridinyl) pyridine di-p-toluenesulfonic acid], the melting point was in the range of 73 to 75 °C. Further, the Ki in data set [1] is 3.61 nM.

`CC(COc1cnc(Cl)c(C=Cc2ccncc2)c1)N(C)C` (single isomer, unassigned) [Example 14] returned a melting point of 79 to 81 °C. Moreover, the Ki in data set [1] stood at 0.367 nM. Besides, the “Analgesic MED (μmol/kg)” value in the data set on mouse hot plate paradigm was “* (no effect at 62)”.
